Legend:
[1] = Acute drug toxicity: deaths by day 7 after intracranial drug injection; type: in vivo, mice; settings: mouse, in vivo, 0.2 mg/kg; read-out: % of Mice That Died
Procedure: (§1) The use of vinblastine (VBL) and vincristine (VC) alone and in combination with a protein carrier on the growth of experimental murine tumors grown intracranially was investigated. Halothane-anesthesized C3H mice 12-16 weeks in age were injected intracranially (i.c.) into the right frontal lobe with 10 µl total volume of Hank's balanced salt solution containing 5 X 10⁴ KHT fibrosarcoma cells through a burr hole made in the exposed cranium with a compressed air-driven drill. Following injection, the cranium was sealed with bone wax, and the overlying skin was sutured.
(§2) The test solution with and without matrix and the saline control were delivered intracranially (i.c.) in an injection volume of 10 µl through the same burr hole used for tumor cell inoculation. All mice were observed daily.
(§3) The acute drug toxicity level was determined by the percentage of animal survival on day 7 following drug injection. A comparison of the acute toxicity (deaths) of mice treated i.c. with matrix-associated VBL to aqueous VBL (10 µl) injection volume to the right frontal lobe is shown in Table 1 below. […]

C3H mice = test: as above; type: in vivo; settings: 0.2 mg/kg vinblastine i.c., 10 µl, right frontal lobe, 5 days post tumor implantation; deaths by day 7 following drug injection; epinephrine 0.1 mg/kg; matrix 1:1 bovine collagen 36 mg/ml
Procedure: as §1, §2, §3

CC[C@]1(O)C[C@@H]2CN(CCc3c([nH]c4ccccc34)[C@@](C(=O)OC)(c3cc4c(cc3OC)N(C)[C@H]3[C@@](O)(C(=O)OC)[C@H](OC(C)=O)[C@]5(CC)C=CCN6CC[C@]43[C@@H]65)C2)C1 [Vinblastine, vinblastine]
mortality at 168 h [1]: 26% | Number of Mice That Died (C3H mice): 7
